{
  "source": "patent US5604234A",
  "about": "“Substituted thiol macrolactam immunomodulators” (Abbott Laboratories, priority 1995, dated 1997)",
  "data": [
    {"test_system": "human mixed lymphocyte reaction (MLR)", "experiment": "human mixed lymphocyte reaction (MLR) assay, immunosuppressant activity", "type": "cell-based", "conditions": "Homo sapiens, Lymphocyte, Table 2", "protocol": "(§1) The immunosuppressant activity of the compounds of the present invention was determined using the human mixed lymphocyte reaction (MLR) assay described by Kino, T. et al. in Transplantation Proceedings, XIX(5):36-39,Suppl. 6 (1987).", "units": {"IC50": "nM"}, "values": [
      {"smiles": "CC[C@@H]1/C=C(\\C)C[C@H](C)C[C@H](OC)[C@H]2O[C@@](O)(C(=O)C(=O)N3CCCC[C@H]3C(=O)O[C@H](/C(C)=C/[C@@H]3CC[C@H]([S+](C)[O-])[C@H](OC)C3)[C@H](C)[C@@H](O)CC1=O)[C@H](C)C[C@@H]2OC", "note": "(single isomer, unassigned) [Example 127]", "IC50": 12.5},
      {"smiles": "CC[C@@H]1/C=C(\\C)C[C@H](C)C[C@H](OC)[C@H]2O[C@@](O)(C(=O)C(=O)N3CCCC[C@H]3C(=O)O[C@H](/C(C)=C/[C@@H]3CC[C@H](SCOC)[C@H](OC)C3)[C@H](C)[C@@H](O)CC1=O)[C@H](C)C[C@@H]2OC", "note": "[Example 131]", "IC50": 5.2},
      {"smiles": "CC[C@@H]1/C=C(\\C)C[C@H](C)C[C@H](OC)[C@H]2O[C@@](O)(C(=O)C(=O)N3CCCC[C@H]3C(=O)O[C@H](/C(C)=C/[C@@H]3CC[C@H](Sc4ccccc4)[C@H](OC)C3)[C@H](C)[C@@H](O)CC1=O)[C@H](C)C[C@@H]2OC", "note": "[Example 132]", "IC50": 3.4},
      {"smiles": "CC[C@@H]1/C=C(\\C)C[C@H](C)C[C@H](OC)[C@H]2O[C@@](O)(C(=O)C(=O)N3CCCC[C@H]3C(=O)O[C@H](/C(C)=C/[C@@H]3CC[C@H](SCSC)[C@H](OC)C3)[C@H](C)[C@@H](O)CC1=O)[C@H](C)C[C@@H]2OC", "note": "[Example 130]", "IC50": 0.58},
      {"smiles": "CC[C@@H]1/C=C(\\C)C[C@H](C)C[C@H](OC)[C@H]2O[C@@](O)(C(=O)C(=O)N3CCCC[C@H]3C(=O)O[C@H](/C(C)=C/[C@@H]3CC[C@H](S(C)(=O)=O)[C@H](OC)C3)[C@H](C)[C@@H](O)CC1=O)[C@H](C)C[C@@H]2OC", "note": "[Example 129]", "IC50": 1.15},
      {"smiles": "CC[C@@H]1/C=C(\\C)C[C@H](C)C[C@H](OC)[C@H]2O[C@@](O)(C(=O)C(=O)N3CCCC[C@H]3C(=O)O[C@H](/C(C)=C/[C@@H]3CC[C@H](SC)[C@H](OC)C3)[C@H](C)[C@@H](O)CC1=O)[C@H](C)C[C@@H]2OC", "note": "[Example 90]", "IC50": 0.75},
      {"smiles": "CC[C@@H]1/C=C(\\C)C[C@H](C)C[C@H](OC)[C@H]2O[C@@](O)(C(=O)C(=O)N3CCCC[C@H]3C(=O)O[C@H](/C(C)=C/[C@@H]3CC[C@H]([S+](C)[O-])[C@H](OC)C3)[C@H](C)[C@@H](O)CC1=O)[C@H](C)C[C@@H]2OC", "note": "(stereo partly shown) [Example 128]", "IC50": 15.5},
      {"smiles": "CC[C@@H]1/C=C(\\C)C[C@H](C)C[C@H](OC)[C@H]2O[C@@](O)(C(=O)C(=O)N3CCCC[C@H]3C(=O)O[C@H](/C(C)=C/[C@@H]3CC[C@H]([S+]([O-])c4ccccc4)[C@H](OC)C3)[C@H](C)[C@@H](O)CC1=O)[C@H](C)C[C@@H]2OC", "note": "(single isomer, unassigned) [Example 133A]", "IC50": 6.2},
      {"smiles": "CCC1C=C(C)CC(C)CC(OC)C2OC(O)(C(=O)C(=O)N3CCCCC3C(=O)OC(C(C)=CC3CCC(SCCC(=O)OCc4ccccc4)C(OC)C3)C(C)C(O)CC1=O)C(C)CC2OC", "note": "(stereo not shown) [Example 18]", "IC50": 18.5}
    ]},
    {"test_system": "human mixed lymphocyte reaction (MLR)", "experiment": "human mixed lymphocyte reaction (MLR) assay, immunosuppressant activity", "type": "cell-based", "conditions": "Table 2", "protocol": "as §1", "units": {"IC50": "nM"}, "values": [
      {"smiles": "CC[C@@H]1/C=C(\\C)C[C@H](C)C[C@H](OC)[C@H]2O[C@@](O)(C(=O)C(=O)N3CCCC[C@H]3C(=O)O[C@H](/C(C)=C/[C@@H]3CC[C@H]([S+]([O-])c4ccccc4)[C@H](OC)C3)[C@H](C)[C@@H](O)CC1=O)[C@H](C)C[C@@H]2OC", "note": "(single isomer, unassigned) [Example 133B]", "IC50": 6.5}
    ]}
  ]
}
